According to PubChem BioAssay AID1963836 (Molecular Pharmacology Branch, DTP, NCI, 2024):

Test system: 857933-349-R-J2-PDC complex spheroid viability
Assay: Anticancer human tumor 857933-349-R-J2-PDC patient-derived colon adenocarcinoma cell line growth inhibition [POLQ]
Settings: for IC50: curve of first compound; for viability, T/C: stronger effect = lower value
Outline: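 Patient-derived tumour cells were co-cultured with HUVEC and mesenchymal stem cells as multicellular spheroids at 37 °C. They were treated with POLQ inhibitors (novobiocin, ART-558, RP6685) alone or combined with other agents. Top concentrations were at or near clinical Cmax (otherwise 10 microM; SN-38 at 1 microM), decreasing in half-log steps.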

[1] = second compound 0.0316 µM, first compound 0.0316 µM
[2] = second compound 0.0316 µM, first compound 0.1 µM
[3] = second compound 0.0316 µM, first compound 0.316 µM
[4] = second compound 0.0316 µM, first compound 1 µM
[5] = second compound 0.0316 µM, first compound 3.16 µM
[6] = second compound 0.0316 µM, first compound 10 µM
[7] = second compound 0.1 µM, first compound 0.0316 µM
[8] = second compound 0.1 µM, first compound 0.1 µM
[9] = second compound 0.1 µM, first compound 0.316 µM
[10] = second compound 0.1 µM, first compound 1 µM
[11] = second compound 0.1 µM, first compound 3.16 µM
[12] = second compound 0.1 µM, first compound 10 µM
[13] = second compound 0.316 µM, first compound 0.0316 µM
[14] = second compound 0.316 µM, first compound 0.1 µM
[15] = second compound 0.316 µM, first compound 0.316 µM
[16] = second compound 0.316 µM, first compound 1 µM
[17] = second compound 0.316 µM, first compound 3.16 µM
[18] = second compound 0.316 µM, first compound 10 µM
[19] = second compound 1 µM, first compound 0.0316 µM
[20] = second compound 1 µM, first compound 0.1 µM
[21] = second compound 1 µM, first compound 0.316 µM
[22] = second compound 1 µM, first compound 1 µM
[23] = second compound 1 µM, first compound 3.16 µM
[24] = second compound 1 µM, first compound 10 µM
[25] = second compound 3.16 µM, first compound 0.0316 µM
[26] = second compound 3.16 µM, first compound 0.1 µM
[27] = second compound 3.16 µM, first compound 0.316 µM
[28] = second compound 3.16 µM, first compound 1 µM
[29] = second compound 3.16 µM, first compound 3.16 µM
[30] = second compound 3.16 µM, first compound 10 µM
[31] = second compound 10 µM, first compound 0.0316 µM
[32] = second compound 10 µM, first compound 0.1 µM
[33] = second compound 10 µM, first compound 0.316 µM
[34] = second compound 10 µM, first compound 1 µM
[35] = second compound 10 µM, first compound 3.16 µM
[36] = second compound 10 µM, first compound 10 µM
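Further: spheroids exposed to compounds for seven days before readout.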

Compound C#Cc1c(F)ccc2cc(O)cc(-c3ncc4c(N5CC6CCC(C5)N6)nc(OCC56CCCN5CC(F)C6)nc4c3F)c12 (stereo unspecified) + COC1C(OC(N)=O)C(O)C(Oc2ccc3c(O)c(NC(=O)c4ccc(O)c(CC=C(C)C)c4)c(=O)oc3c2C)OC1(C)C has an IC50 (second compound 0.0316 µM) of over 10000 nM, an IC50 (second compound 0.1 µM) of over 10000 nM and an IC50 (second compound 0.316 µM) of over 10000 nM. It also gave an IC50 (second compound 1 µM) of over 10000 nM, an IC50 (second compound 3.16 µM) of over 10000 nM and an IC50 (second compound 10 µM) of over 10000 nM. For the same compound, the viability, T/C [1] was 106%, the viability, T/C [2] was 94.9% and the viability, T/C [3] was 92.3%. For the same compound, the viability, T/C [4] was 79.2%, the viability, T/C [5] was 70.8% and the viability, T/C [6] was 99.2%. The viability, T/C [7] was 102%, the viability, T/C [8] was 102% and the viability, T/C [9] was 94%. For the same compound, the viability, T/C [10] was 80.7%, the viability, T/C [11] was 86.6% and the viability, T/C [12] was 92.2%. It also gave a viability, T/C [13] of 98%, a viability, T/C [14] of 96.7% and a viability, T/C [15] of 81.2%. For the same compound, the viability, T/C [16] was 88.6%, the viability, T/C [17] was 84.9% and the viability, T/C [18] was 78.1%. It also gave a viability, T/C [19] of 114%, a viability, T/C [20] of 95.1% and a viability, T/C [21] of 79.3%. The viability, T/C [22] was 82.3%, the viability, T/C [23] was 95.5% and the viability, T/C [24] was 90.8%. It also gave a viability, T/C [25] of 96.4%, a viability, T/C [26] of 98.6% and a viability, T/C [27] of 96%. It also gave a viability, T/C [28] of 119%, a viability, T/C [29] of 88.1% and a viability, T/C [30] of 94.5%. For the same compound, the viability, T/C [31] was 98.3%, the viability, T/C [32] was 89.8% and the viability, T/C [33] was 93%. It also gave a viability, T/C [34] of 77.6%, a viability, T/C [35] of 85.4% and a viability, T/C [36] of 104%.
Compound CC1COCCN1c1cc(C2(O)CC3CCC(C2)O3)c2cnn(-c3ccn[nH]3)c2n1 (stereo unspecified) + COC1C(OC(N)=O)C(O)C(Oc2ccc3c(O)c(NC(=O)c4ccc(O)c(CC=C(C)C)c4)c(=O)oc3c2C)OC1(C)C has an IC50 (second compound 0.0316 µM) of 249 nM, an IC50 (second compound 0.1 µM) of 279 nM and an IC50 (second compound 0.316 µM) of 334 nM. It also gave an IC50 (second compound 1 µM) of 285 nM, an IC50 (second compound 3.16 µM) of 171 nM and an IC50 (second compound 10 µM) of 339 nM. For the same compound, the viability, T/C [1] was 76.3%, the viability, T/C [2] was 61.5% and the viability, T/C [3] was 48.2%. For the same compound, the viability, T/C [4] was 39%, the viability, T/C [5] was 40.7% and the viability, T/C [6] was 49.7%. For the same compound, the viability, T/C [7] was 111%, the viability, T/C [8] was 57.7% and the viability, T/C [9] was 59.4%. The viability, T/C [10] was 37.7%, the viability, T/C [11] was 40.2% and the viability, T/C [12] was 47%. It also gave a viability, T/C [13] of 63.3%, a viability, T/C [14] of 68.1% and a viability, T/C [15] of 50.3%. It also gave a viability, T/C [16] of 41%, a viability, T/C [17] of 43.1% and a viability, T/C [18] of 46.7%. It also gave a viability, T/C [19] of 94.3%, a viability, T/C [20] of 58.1% and a viability, T/C [21] of 50.4%. The viability, T/C [22] was 41.2%, the viability, T/C [23] was 49.9% and the viability, T/C [24] was 51.4%. It also gave a viability, T/C [25] of 75.2%, a viability, T/C [26] of 54.5% and a viability, T/C [27] of 45.5%. The viability, T/C [28] was 38.1%, the viability, T/C [29] was 43.3% and the viability, T/C [30] was 50%. It also gave a viability, T/C [31] of 71.5%, a viability, T/C [32] of 63.6% and a viability, T/C [33] of 52.8%. The viability, T/C [34] was 36.7%, the viability, T/C [35] was 45.6% and the viability, T/C [36] was 47.9%.
CC(=O)O[C@H]1C(=O)[C@@]2(C)[C@H]([C@H](OC(=O)c3ccccc3)[C@]3(O)C[C@H](OC(=O)[C@H](O)[C@@H](NC(=O)c4ccccc4)c4ccccc4)C(C)=C1C3(C)C)[C@]1(OC(C)=O)CO[C@@H]1C[C@@H]2O + Cc1cccc(N(C)C(=O)C2C(O)CCN2c2nc(C)cc(C(F)(F)F)c2C#N)c1 gave an IC50 (second compound 0.0316 µM) of under 9.49 nM, an IC50 (second compound 0.1 µM) of under 9.49 nM and an IC50 (second compound 0.316 µM) of under 9.49 nM. It also gave an IC50 (second compound 1 µM) of under 9.49 nM, an IC50 (second compound 3.16 µM) of 10.7 nM and an IC50 (second compound 10 µM) of under 9.49 nM. It also gave a viability, T/C (second compound 0.0316 µM, first compound 0.00949 µM) of 45.4%, a viability, T/C (second compound 0.0316 µM, first compound 0.03 µM) of 21.2% and a viability, T/C (second compound 0.0316 µM, first compound 0.0949 µM) of 10.7%. It also gave a viability, T/C (second compound 0.0316 µM, first compound 0.3 µM) of 11.8%, a viability, T/C (second compound 0.0316 µM, first compound 0.949 µM) of 9.59% and a viability, T/C (second compound 0.0316 µM, first compound 3 µM) of 14.6%. The viability, T/C (second compound 0.1 µM, first compound 0.00949 µM) was 40.1%, the viability, T/C (second compound 0.1 µM, first compound 0.03 µM) was 16.9% and the viability, T/C (second compound 0.1 µM, first compound 0.0949 µM) was 12.6%. The viability, T/C (second compound 0.1 µM, first compound 0.3 µM) was 10.6%, the viability, T/C (second compound 0.1 µM, first compound 0.949 µM) was 14.4% and the viability, T/C (second compound 0.1 µM, first compound 3 µM) was 13.8%. It also gave a viability, T/C (second compound 0.316 µM, first compound 0.00949 µM) of 40%, a viability, T/C (second compound 0.316 µM, first compound 0.03 µM) of 19.5% and a viability, T/C (second compound 0.316 µM, first compound 0.0949 µM) of 10.1%. The viability, T/C (second compound 0.316 µM, first compound 0.3 µM) was 12%, the viability, T/C (second compound 0.316 µM, first compound 0.949 µM) was 12.3% and the viability, T/C (second compound 0.316 µM, first compound 3 µM) was 12.4%. It also gave a viability, T/C (second compound 1 µM, first compound 0.00949 µM) of 47.7%, a viability, T/C (second compound 1 µM, first compound 0.03 µM) of 20% and a viability, T/C (second compound 1 µM, first compound 0.0949 µM) of 12.6%. The viability, T/C (second compound 1 µM, first compound 0.3 µM) was 10.4%, the viability, T/C (second compound 1 µM, first compound 0.949 µM) was 10.9% and the viability, T/C (second compound 1 µM, first compound 3 µM) was 13.4%. It also gave a viability, T/C (second compound 3.16 µM, first compound 0.00949 µM) of 54%, a viability, T/C (second compound 3.16 µM, first compound 0.03 µM) of 15.1% and a viability, T/C (second compound 3.16 µM, first compound 0.0949 µM) of 10.4%. It also gave a viability, T/C (second compound 3.16 µM, first compound 0.3 µM) of 12.1%, a viability, T/C (second compound 3.16 µM, first compound 0.949 µM) of 12.1% and a viability, T/C (second compound 3.16 µM, first compound 3 µM) of 13.5%. It also gave a viability, T/C (second compound 10 µM, first compound 0.00949 µM) of 35.4%, a viability, T/C (second compound 10 µM, first compound 0.03 µM) of 14.5% and a viability, T/C (second compound 10 µM, first compound 0.0949 µM) of 13.6%. The viability, T/C (second compound 10 µM, first compound 0.3 µM) was 11.8%, the viability, T/C (second compound 10 µM, first compound 0.949 µM) was 13.3% and the viability, T/C (second compound 10 µM, first compound 3 µM) was 15.4%.
